Measured values: US6303596A, “Use of taurolidine for treatment of leukemias” (priority 2000, dated 2001)
Values joined by “and” are separate entries in the source; they are usually repeats but may differ in a detail not shown here. Equal values may be shown once.

Experiments:
GM5387 = assay: TUNEL / propidium iodide flow cytometry, GM5387; type: cell-based, human; conditions: GM5387; taurolidine 100 μg/ml or anisomycin 1 μg/ml for 4 h, assayed at 6 hours; mean ± SD
Procedure: (§1) In the second method, DNA fragmentation was detected via TUNEL assay according to the manufacturer's instructions. With this methodology, 2×10^6 cells were fixed with 2% paraformaldehyde, permeabilized with 0.1% Triton X-100/0.1% citrate, incubated at 37° C. with terminal deoxynucleotidyl transferase and FITC-dUTP, rinsed and analyzed by flow cytometry. Enhanced FITC signal indicates apoptosis-specific DNA fragmentation. Gavriali, et al, "Identification of programmed cell death in situ via specific labeling of nuclear DNA fragmentation," J Cell Biol 119:493 (1992). Parallel aliquots of unfixed cells were treated with PI and FITC-conjugated anti-CD14 and analyzed by flow cytometry, in order to identify cells with permeable cell membranes (since PI binds to DNA but is excluded from cells with intact plasma membranes) and also to determine the cell-specificity of the apoptotic signal.
(§2) In another study, TUNEL assays were performed on all cell lines 6 hours after cells were initially exposed to taurolidine (cells were treated for 4 hours, rinsed, and then incubated for 2 more hours before TUNEL assay was performed).
(§3) . Taurolidine and anisomycin induced apoptosis in MM6, HL-60, and Jurkat cells (Table VIII). MM6 and HL-60 cells were similarly effected, with >80% TUNEL-positive cells after 6 hours. […]
(§4) Data are percent of total cell-size events, and are expressed as mean ± […]

K562 = assay: TUNEL / propidium iodide flow cytometry, K562; type: cell-based, human; conditions: taurolidine 100 μg/ml or anisomycin 1 μg/ml for 4 h, mean ± SD
Procedure: as §1, §2
(§5) . Taurolidine and anisomycin induced apoptosis in MM6, HL-60, and Jurkat cells (Table VIII). MM6 and HL-60 cells were similarly effected, with >80% TUNEL-positive cells after 6 hours. Jurkat cells were less sensitive, with approximately 50% of cells induced to undergo apoptosis after taurolidine treatment. After 6 hours, 73% of anisomycin-treated REH cells were apoptotic, with less than 20% of taurolidine-treated REH cells being TUNEL-positive. However, assay of cells 24 hours after
(§6) ^a Analysis by flow cytometry after staining cells with propidium
(§7) iodide and processing for TUNEL.
(§8) Data are percent of total cell-size events, and are expressed as mean ±
(§9) Cells were treated for 4 hours with taurolidine (100 μg/ml) or
(§10) anisomycin (1 μg/ml), and then assayed at 6 hours.
(§11) Data are percent of total cell-sized events, and are expressed as mean ±
(§12) anisomycin (1 μg/ml), and then assayed at 24 hours.

Jurkat = assay: TUNEL / propidium iodide flow cytometry, Jurkat; type: cell-based, human; conditions: taurolidine 100 μg/ml or anisomycin 1 μg/ml for 4 h, assayed at 6 hours, mean ± SD
Procedure: as §1, §2, §3, §4

REH = assay: TUNEL / propidium iodide flow cytometry, REH; type: cell-based, human; conditions: taurolidine 100 μg/ml or anisomycin 1 μg/ml for 4 h, mean ± SD
Procedure: as §1, §2, §5, §6, §7, §8, §9, §10, §11, §12

MM6 = assay: TUNEL / propidium iodide flow cytometry, MM6; type: cell-based, human; conditions: MM6; taurolidine 100 μg/ml or anisomycin 1 μg/ml for 4 h, assayed at 6 hours; mean ± SD
Procedure: as §1
(§13) Consequently, TUNEL analysis was performed on PBMC at 3, 6, or 24 hours after treatment with 25 to 100 μg/ml taurolidine. Aliquots of harvested cells were also labeled with FITC-conjugated anti-CD14 antibodies and PI, which allowed identification of monocytes (CD14-positive cells) and cells with damaged cell membranes (PI-positive cells). […] Thus, nearly 75% of the monocytes were TUNEL-positive following treatment with 100 μg/ml taurolidine for six hours. Confirmation that the TUNEL-positive cells were monocytes was obtained by staining with FITC-conjugated anti-CD14.
as §2, §5, §6, §7, §8, §9, §10

ECV304 = assay: TUNEL / propidium iodide flow cytometry, ECV304; type: cell-based, human; conditions: ECV304; taurolidine 100 μg/ml or anisomycin 1 μg/ml for 4 h, assayed at 6 hours; mean ± SD
Procedure: as §1, §2, §3, §4

HL-60 = assay: TUNEL / propidium iodide flow cytometry, HL-60; type: cell-based, human; conditions: HL-60; taurolidine 100 μg/ml or anisomycin 1 μg/ml for 4 h, assayed at 6 hours; mean ± SD
Procedure: as §1, §13, §2, §5, §6, §7, §8, §9, §10

Lymphocytes = assay: tissue or blood; type: cell-based, human; conditions: whole blood
Procedure: (§14) FIGS. 15A, 15B, and 15C depict TUNEL analysis of PBMC treated with taurolidine in whole blood, for control cells, taurolidine-treated cells, and anisomycin-treated cells, respectively . Cells were incubated with 500 μg/ml taurolidine for 4 hours, resuspended in fresh medium, incubated for two hours further and processed for TUNEL analysis. Parallel samples were stained with FITC-conjugated anti-CD14 and PI as described herein. Ten thousand events were recorded per sample. TUNEL signal (x -axis) is a measure of DNA fragmentation, while FSC (y-axis) is related to cell size. TUNEL-negative lymphocytes are bounded by rectangle R 1, while TUNEL-negative monocytes (CD 14 positive cells) are bounded by rectangle R2. R3 bounds the TUNEL-positive population of cells. There were minimal numbers of PI-positive cells in 6 hour samples (see Table VI).
as §1
(§15) Taurolidine at 100 μg/ml induced apoptosis of approximately 75% of purified peripheral blood monocytes when these cells were incubated in culture medium. However, in order to more closely mimic the milieu of leukocytes in vivo, induction of apoptosis in PBMC by taurolidine was studied in whole blood (anticoagulated with heparin). As before, apoptosis was quantitated by measuring the loss of monocytes from a TUTNEL-negative (no DNA fragmentation), CD 14 positive population of cells which was concomitant with the appearance of a TUNEL-positive population of cells. Treatment of PBMC in whole blood resulted
(§16) in a shift of the taurolidine dose-response curve. […] As a positive control for induction of apoptosis, some cells were treated with anisomycin, a protein synthesis inhibitor known to induce apoptosis in monocytes.
(§17) ^a Analysis by flow cytometry after staining cells with PI and
(§18) processing for TUNEL. Data are mean ± SD of 2 experiments.
(§19) ^b Percent of cells present in the TUNEL-negative region in control

Monocytes = assay: tissue or blood; type: cell-based, human
Procedure: as §14, §1, §15, §16, §17, §18, §19

TNFα = assay: LPS-induced TNFα expression/secretion by MM6 cells, ELISA; type: cell-based, human; conditions: MM6, taurine 44 μg/ml
Procedure: FIG. 3A and FIG. 3B are graphs depicting taurolidine inhibition of LPS-induced alpha […] (TNFα) expression by monocytic cells as determined by assay procedures. FIG. 3A represents MM6 cells; FIG. 3B represents PBMC. The cells were induced with LPS (hatched bars: 100 ng/ml LPS in RPMI+10% BCS; solid bars: 10 ng/ml in AIM-V+0.01% BCS) in the presence of varying concentrations of taurolidine. After four hours, cell supernatants were collected for TNFα ELISA. Data are expressed as percent of TNFα levels measured in cell cultures treated with LPS alone (no taurolidine or vehicle). Experiments were performed with duplicate samples and were repeated at least three times. Values shown in FIG. 3A are from a representative experiment. Values shown in FIG. 3B are mean±SEM of three experiments.
(§20) All cells were cultured in a 5% CO2 atmosphere at 37° C. MM6 cells were grown in RPMI supplemented with 10% BCS, 2 mM L-glutamine, and 50 μg/ml gentamicin (RPMI+10% BCS). In some experiments, MM6 cells were rinsed once with HBSS without Ca^++ or Mg^++ and once with AIM-V before finally being resuspended in AIM-V supplemented with 0.01% BCS (AIM-V+0.01% BCS). […] AIM-V was supplemented with a low amount of BCS (0.01%) in order to provide a source of LPS-binding protein, which enhances the response of monocytic cells to LPS. Ulevitch, R. J. and Tobias, P. S., "Recognition of endotoxin by cells leading to transmembrne signaling," Curr Opin Immunol 6:125 (1994). HL-60, REH, and Jurkat were cultured in RPMI supplemented with 10% heat inactivated fetal bovine serum (FBS), 2 mM L-glutamine, and 50 μg/ml gentamicin. ECV304 were cultured in M199 supplemented with 10% FBS, mM L-glutamine, and 50 μg/ml gentamicin. GM5387 was cultured in MEM supplemented with 20% FBS, 2 mM L-glutamine, and 50 μg/ml gentamicin.
For induction of TF or TNFα expression, MM6 cells or PBMC were cultured either in RPMI supplemented with 10% BCS or in AIM-V+0.01% BCS, and stimulated by adding LPS to final concentrations of 10 to 100 ng/ml. […]

tissue factor (TF) = assay: LPS-induced tissue factor (TF) expression in MM6 cells, ELISA; type: cell-based, human; conditions: MM6, taurine up to 0.5 mg/ml
Procedure: FIG. 2A represents MM6 cells; FIG. 2B represents PBMC. The cells were induced with LPS (hatched bars: 100 ng/ml LPS in RPMI supplemented with 10% BCS (RPMI+10% BCS); solid bars: 10 ng/ml in AIM-V+0.01% BCS) in the presence of varying concentrations of taurolidine,or with a dilution of the vehicle equivalent to that given to cells receiving 100 μg/ml taurolidine. After four hours, cells were collected and lysates were prepared for TF ELISA. Data are expressed as percent of TF antigen measured in cells treated with LPS alone (no taurolidine or vehicle). Experiments were performed with duplicate samples and were repeated at least three times. Values shown are mean±SEM of all experiments.
as §20, with “Ulevitch, R. J. and Tobias, P. S., "Recognition of endotoxin by cells leading to transmembrne signaling," Curr Opin Immunol 6:125 (1994).” left out
For induction of TF or TNFα expression, MM6 cells or PBMC were cultured either in RPMI supplemented with 10% BCS or in AIM-V+0.01% BCS, and stimulated by adding LPS to final concentrations of 10 to 100 ng/ml. […] Except as noted, taurolidine and LPS were added to the cell cultures simultaneously. For TF determination, cells and culture media together were treated by adding Triton X-100 (1% final) and EDTA (7 mmol/L final), and the resulting lysates assayed by ELISA. […] For TNFα determination, cells were removed by centrifugation for 5 min at 250×g, and the supernatants were assayed by ELISA.

human blood monocytes = conditions: cited from earlier work

COc1ccc(C[C@H]2NC[C@H](O)[C@H]2OC(C)=O)cc1 [anisomycin]
% propidium iodide positive (GM5387): 5.4 ± 3.2% | % propidium iodide positive (K562; assayed at 6 hours): 4.8 ± 3.1% | % TUNEL-positive (K562; assayed at 24 hours): 2.2 ± 6.2% | % propidium iodide (K562; assayed at 24 hours): 7.1 ± 2.3% | % TUNEL-positive (K562; assayed at 24 hours, listed as Anisomycin): less than 10% | % TUNEL-positive (Jurkat): 69.6 ± 19.8% | % propidium iodide positive (Jurkat): 5.1 ± 3.4% | % TUNEL-positive (REH; assayed at 6 hours): 73% and 72.9 ± 7.4% | % propidium iodide positive (REH; assayed at 6 hours): 18.4 ± 0.5% | % TUNEL-positive (REH; assayed at 24 hours): 53.0 ± 2.6% | % propidium iodide (REH; assayed at 24 hours): 51.6 ± 17.0% | % TUNEL-positive (MM6): > 80% and 92.0 ± 2.3% | % propidium iodide positive (MM6): 19.1 ± 5.4% | % propidium iodide positive (ECV304): 2.2 ± 3.1% | % TUNEL-positive (HL-60): > 80% and 96.1 ± 6.8% | % propidium iodide positive (HL-60): 28.3 ± 15.3% | induction of apoptosis in lymphocytes (Lymphocytes): no evidence for a significant effect | TUNEL-negative monocytes after anisomycin (Monocytes; PBMC in whole blood): loss of TUNEL-negative monocytes | TUNEL-positive cells after anisomycin (Monocytes; whole blood, 6 hour incubation, versus taurolidine): fewer TUNEL-positive cells

NCCS(=O)(=O)O [taurine]
effect on TNFα expression (TNFα): no effect on TNFα expression | effect on TF expression (tissue factor (TF)): no effect on TF expression

B1: IL-4: anti-inflammatory cytokine IL-4 (protein, UniProt P05112 25-153, looked up)
Interleukin-4: HKCDITLQEIIKTLNSLTEQKTLCTELTVTDIFAASKNTTEKETFCRAATVLRQFYSHHEKDTRCLGATAQQFHRHKQLIRFLKRLDRNLWGLAGLNSCPVKEANQSTLENFLERLKTIMREKYSKCSS
effect on apoptosis in LPS-stimulated monocytes (human blood monocytes): can enhance apoptosis
